Laboratory results taken from ChEMBL document CHEMBL4052655, “Synthesis, spectroscopic characterization and biological evaluation of unsymmetrical aminosquarylium cyanine dyes” (Bioorg Med Chem, 2017).
The source made the active and inactive calls. No cut-off for these calls is given here.

Legend:
[1] = Dark toxicity against human HepG2 cells assessed as cell viability at 5 to 10 uM pretreated for 24 hrs followed by 14 mins dark incubation measured after 1 to 24 hrs by Alamar blue assay relative to control; type: cell-based; settings: read-out: Activity
[2] = system: Caco-2; assay: Phototoxicity against human Caco2 cells assessed as reduction in cell viability at 1 uM pretreated for 24 hrs followed by 3.61 J irradiation for 14 mins measured after 24 hrs by Alamar blue assay; type: functional, cell-based
[3] = Dark toxicity against human HepG2 cells pretreated for 24 hrs followed by 14 mins dark incubation measured after 1 hr by Alamar blue assay; type: cell-based
[4] = Dark toxicity against human HepG2 cells pretreated for 24 hrs followed by 14 mins dark incubation measured after 24 hrs by Alamar blue assay; type: cell-based
[5] = system: HepG2; assay: Phototoxicity against human HepG2 cells assessed as reduction in cell viability at 1 uM pretreated for 24 hrs followed by 1.81 J irradiation for 7 mins measured after 24 hrs by Alamar blue assay; type: functional, cell-based
[6] = system: HepG2; assay: Phototoxicity against human HepG2 cells pretreated for 24 hrs followed by 1.81 J irradiation for 7 mins measured after 1 hr by Alamar blue assay; type: functional, cell-based; settings: HepG2, light or radiation study
[7] = system: HepG2; assay: Phototoxicity against human HepG2 cells assessed as reduction in cell viability at 1 uM pretreated for 24 hrs followed by 3.61 J irradiation for 14 mins measured after 1 hr by Alamar blue assay; type: functional, cell-based
[8] = system: HepG2; assay: Phototoxicity against human HepG2 cells pretreated for 24 hrs followed by 1.81 J irradiation for 7 mins measured after 24 hrs by Alamar blue assay; type: functional, cell-based; settings: HepG2, light or radiation study
[9] = system: HepG2; assay: Phototoxicity against human HepG2 cells pretreated for 24 hrs followed by 3.61 J irradiation for 14 mins measured after 24 hrs by Alamar blue assay; type: functional, cell-based; settings: HepG2, light or radiation study
[10] = system: Caco-2; assay: Phototoxicity against human Caco2 cells assessed as cell viability at 5 uM pretreated for 24 hrs followed by 1.81 J irradiation for 7 mins measured after 24 hrs by Alamar blue assay (reference value: 60%); type: functional; settings: Caco-2, light or radiation study, read-out: Activity
[11] = Dark toxicity against human Caco2 cells assessed as cell viability at 5 to 10 uM pretreated for 24 hrs followed by 14 mins dark incubation measured after 1 to 24 hrs by Alamar blue assay relative to control; type: cell-based; settings: Caco-2 cells, read-out: Activity
[12] = Dark toxicity against human Caco2 cells pretreated for 24 hrs followed by 14 mins dark incubation measured after 1 hr by Alamar blue assay; type: cell-based; settings: Caco-2 cells
[13] = Induction of singlet oxygen production in chloroform
[14] = system: Caco-2; assay: Phototoxicity against human Caco2 cells pretreated for 24 hrs followed by 3.61 J irradiation for 14 mins measured after 1 hr by Alamar blue assay; type: functional, cell-based; settings: Caco-2, light or radiation study
[15] = Dark toxicity against human Caco2 cells assessed as cell viability at 0.1 to 1 uM pretreated for 24 hrs followed by 14 mins dark incubation after 1 to 24 hrs by Alamar blue assay relative to control; type: cell-based; settings: Caco-2 cells, read-out: Activity
[16] = Dark toxicity against human HepG2 cells assessed as cell viability at 1 uM pretreated for 24 hrs followed by 14 mins dark incubation after 48 hrs by Alamar blue assay relative to control; type: cell-based; settings: read-out: Activity
[17] = system: Caco-2; assay: Phototoxicity against human Caco2 cells pretreated for 24 hrs followed by 1.81 J irradiation for 7 mins measured after 1 hr by Alamar blue assay; type: functional, cell-based; settings: Caco-2, light or radiation study
[18] = system: Caco-2; assay: Phototoxicity against human Caco2 cells pretreated for 24 hrs followed by 1.81 J irradiation for 7 mins measured after 24 hrs by Alamar blue assay; type: functional, cell-based; settings: Caco-2, light or radiation study
[19] = system: Caco-2; assay: Ratio of IC50 for human Caco2 cells pretreated for 24 hrs followed by 14 mins dark incubation to IC50 for human Caco2 cells pretreated for 24 hrs followed by 3.61 J irradiation for 14 mins
[20] = system: Caco-2; assay: Phototoxicity against human Caco2 cells pretreated for 24 hrs followed by 3.61 J irradiation for 14 mins measured after 24 hrs by Alamar blue assay; type: functional, cell-based; settings: Caco-2, light or radiation study
[21] = system: Caco-2; assay: Phototoxicity against human Caco2 cells assessed as reduction in cell viability at 1 uM pretreated for 24 hrs followed by 1.81 J irradiation for 7 mins measured after 1 to 24 hrs by Alamar blue assay; type: functional, cell-based
[22] = system: Caco-2; assay: Phototoxicity against human Caco2 cells assessed as cell viability at 5 uM pretreated for 24 hrs followed by 3.61 J irradiation for 14 mins measured after 24 hrs by Alamar blue assay (reference value: 60%); type: functional; settings: Caco-2, light or radiation study, read-out: Activity
[23] = system: HepG2; assay: Phototoxicity against human HepG2 cells assessed as reduction in cell viability at 1 uM pretreated for 24 hrs followed by 3.61 J irradiation for 14 mins measured after 24 hrs by Alamar blue assay; type: functional, cell-based
[24] = Dark toxicity against human Caco2 cells pretreated for 24 hrs followed by 14 mins dark incubation measured after 24 hrs by Alamar blue assay; type: cell-based; settings: Caco-2 cells
[25] = system: HepG2; assay: Phototoxicity against human HepG2 cells pretreated for 24 hrs followed by 3.61 J irradiation for 14 mins measured after 1 hr by Alamar blue assay; type: functional, cell-based; settings: HepG2, light or radiation study
[26] = system: HepG2; assay: Phototoxicity against human HepG2 cells assessed as reduction in cell viability at 1 uM pretreated for 24 hrs followed by 1.81 J irradiation for 7 mins measured after 1 hr by Alamar blue assay; type: functional, cell-based
[27] = system: Caco-2; assay: Phototoxicity against human Caco2 cells assessed as cell viability at 1 uM pretreated for 24 hrs followed by 3.61 J irradiation for 14 mins measured after 24 hrs by Alamar blue assay (reference value: 80%); type: functional; settings: Caco-2, light or radiation study, read-out: Activity
[28] = Dark toxicity against human Caco2 cells assessed as cell viability at 1 uM pretreated for 24 hrs followed by 14 mins dark incubation after 1 to 24 hrs by Alamar blue assay relative to control; type: cell-based; settings: Caco-2 cells, read-out: Activity
[29] = Dark toxicity against human HepG2 cells assessed as cell viability at 10 uM pretreated for 24 hrs followed by 14 mins dark incubation measured after 1 to 24 hrs by Alamar blue assay relative to control; type: cell-based; settings: read-out: Activity
[30] = system: HepG2; assay: Phototoxicity against human HepG2 cells assessed as cell viability at 5 uM pretreated for 24 hrs followed by 3.61 J irradiation for 14 mins measured after 24 hrs by Alamar blue assay relative to control; type: functional; settings: HepG2, light or radiation study, read-out: Activity
[31] = system: Caco-2; assay: Dark toxicity against human Caco2 cells assessed as reduction in cell viability at 10 uM pretreated for 24 hrs followed by 14 mins dark incubation measured after 1 to 24 hrs by Alamar blue assay; type: cell-based; settings: caco-2, 10 µM
[32] = system: Caco-2; assay: Phototoxicity against human Caco2 cells at 5 to 10 uM pretreated for 24 hrs followed by 1.81 J irradiation for 7 mins measured after 24 hrs by Alamar blue assay; type: functional, cell-based
[33] = system: HepG2; assay: Phototoxicity against human HepG2 cells assessed as reduction in cell viability at 5 uM pretreated for 24 hrs followed by 3.61 J irradiation for 14 mins measured after 24 hrs by Alamar blue assay; type: functional, cell-based
[34] = system: Caco-2; assay: Dark toxicity against human Caco2 cells assessed as reduction in cell viability at 1 uM pretreated for 24 hrs followed by 14 mins dark incubation measured after 1 to 24 hrs by Alamar blue assay; type: cell-based; settings: caco-2, 1 µM
[35] = system: HepG2; assay: Phototoxicity against human HepG2 cells assessed as reduction in cell viability up to 10 uM pretreated for 24 hrs followed by 1.81 J irradiation for 7 mins measured after 1 hr by Alamar blue assay; type: functional, cell-based
[36] = system: HepG2; assay: Dark toxicity against human HepG2 cells assessed as reduction in cell viability at 1 uM pretreated for 24 hrs followed by 14 mins dark incubation measured after 1 to 24 hrs by Alamar blue assay; type: cell-based; settings: hepg2, 1 µM
[37] = system: Caco-2; assay: Phototoxicity against human Caco2 cells at 5 to 10 uM pretreated for 24 hrs followed by 3.61 J irradiation for 14 mins measured after 24 hrs by Alamar blue assay; type: functional, cell-based

Structure (SMILES)	viability at 24 h, 10 µM [1]	IC50 at 1 h [3]	IC50 at 24 h [4]	Activity [5]	IC50 [6]	Activity [7]	IC50 [8]	IC50 [9]	viability at up to 10 µM [11]	IC50 at 1 h [12]	Activity [13]	IC50 [14]	viability at 48 h, 1 µM [16]	IC50 [17]	IC50 [18]	IC50 [20]	Activity [21]	Activity [23]	IC50 at 24 h [24]	IC50 [25]	other results
CCCCCCN1/C(=C/C2=C(NC)C(=C\c3ccc4ccccc4[n+]3CCCCCC)/C2=O)Sc2ccccc21.[I-]	0%	2.93 µM	1.36 µM	Active	3.39 µM	Active	1.02 µM	0.83 µM	0%	5.11 µM	Active	1.46 µM	70%	3.9 µM	1.16 µM	0.47 µM	Active	Active	1.27 µM	0.93 µM	Activity [2]: Active; viability at 5 µM [10]: 0%; viability at up to 1 µM [15]: 70%; Ratio IC50 [19]: 3.6; viability at 5 µM [22]: 0%
CCCCCCN1/C(=C/C2=C(N)C(=C\c3ccc4ccccc4[n+]3CCCCCC)/C2=O)Sc2ccccc21	0%	1.71 µM	1.4 µM	Active	0.75 µM	Active	0.94 µM	0.65 µM	0%	1.72 µM	Active	0.95 µM	20%	1.24 µM	1.39 µM	0.69 µM	Active	Active	1.65 µM	0.86 µM	Activity [26]: Active; viability at 1 µM [27]: 0%; viability at 24 h, 1 µM [28]: 20%
CCCCCCN1/C(=C/C2=C([O-])C(=C\c3ccc4ccccc4[n+]3CCCCCC)/C2=O)Sc2ccccc21	–	9.1 µM	7.84 µM	–	8.53 µM	–	8.24 µM	5.06 µM	–	> 10 µM	Active	> 10 µM	–	> 10 µM	5.38 µM	5.08 µM	–	–	5.8 µM	8.95 µM	viability at 24 h, 10 µM [29]: 15%; viability at 5 µM [30]: 50%; Activity [31]: Non-Toxic; Activity [32]: Active; Activity [33]: Active; Activity [34]: Non-Toxic; Activity [35]: inactive; Activity [36]: Non-Toxic; Activity [37]: Active
